Results as given in patent US9834567B1, “Crystalline form of cefamandole nafate compound, preparation and preparing method thereof” (TIANJIN UNIVERSITY, priority 2014, dated 2017).

Key:
Rabbits [1] = format: in vivo
Experimental: (§1) The novel crystalline form of Cefamandole Nafate compound of the present invention was tested by toxic reaction tests shown as follows (taking the crystalline form of Cefamandole Nafate obtained in Example 1 for example):
Rabbits were injected with 0.4˜2.1 g of Cefamandole Nafate each time with the interval of 15 min, and recording the changes of blood pressure and electrocardiogram.

Rabbits [2] = assay: Toxic reaction test: 15-day daily intravenous injection in rabbits (renal); format: in vivo; conditions: 250 mg/kg intravenously daily for 15 days
Experimental: as §1
Rabbits were divided into 2 groups, every 4 animals in each group, and daily intravenously injected with 250 mg/kg Cefamandole Nafate for 15 days, while the control group was injected with 5 ml saline per day.

[3] = Toxic reaction test: acute toxicity (LD50) in mice; conditions: mouse, in vivo
Experimental: as §1
(§2) Mice were divided into 4 dose groups by weights, every 10 animals in each group, and administered by intravenous injection, subcutaneous injection and intraperitoneal injection with a concentration of […].

[4] = Toxic reaction test: acute toxicity (LD50) in rats; conditions: rat, in vivo, intravenous injection
Experimental: as §1, §2

[5] = Storage stability of the crystalline product; format: physicochemical
Experimental: Said method has the following advantageous effects: simple procedure, easy operation, and low energy consumption. The prepared product has a melting range of 160˜170° C. with good thermal stability, and is conducive to the long-term preservation. […] The product is easy to crush and processed into dosage forms of a pharmaceutical composition, as well as low cost, and easier to implement on commercial and industrial scale.

[6] = anesthetized rabbits, intravenous injection, 0.4~2.1 g each time
[7] = rabbits, dosage up to 4800 mg/kg

Compound | breathing (Rabbits [1]; [6]) | electrocardiogram and heart rate (Rabbits [1]; [6]) | death (Rabbits [1]; rabbits, dosage further increased above 4800 mg/kg) | blood pressure (Rabbits [1]; [7]) | electrocardiogram (Rabbits [1]; [7]) | respiration (Rabbits [1]; [7]) | renal tissue concentration (Rabbits [2]) | renal toxicity (Rabbits [2]) | LD50 ([3]; intravenous injection) [mg/kg] | LD50 ([3]; ip, intraperitoneal injection) [mg/kg] | LD50 ([3]; sc, subcutaneous injection) [mg/kg] | LD50 [4] [mg/kg] | degradation after placing for a long time [5]
Cn1nnnc1SCC1=C(C(=O)[O-])N2C(=O)[C@@H](NC(=O)[C@H](OC=O)c3ccccc3)[C@H]2SC1.[Na+] [Cefamandole Nafate, (6R, 7R)-7-R-(2-formyloxy-2-phenylacetamide)-3-[[(1-methyl-1H-tetrazol-5-yl)thio]methyl]-8-oxo-5-thia-1-azabicyclo [4.2.0] oct-2-ene-2-carboxylate sodium salt] | deepened and accelerated | did not change significantly | death occurred | significantly decreased | prolonged in P-R interval, depressed in ST segment, and ventricular arrhythmias | inhibited | increased | low |  |  |  |  | 
Cn1nnnc1SCC1=C(C(=O)[O-])N2C(=O)[C@@H](NC(=O)[C@H](OC=O)c3ccccc3)[C@H]2SC1.[Na+] [Example 1, (6R, 7R)-7-R-(2-formyloxy-2-phenylacetamide)-3-[[(1-methyl-1H-tetrazol-5-yl)thio]methyl]-8-oxo-5-thia-1-azabicyclo [4.2.0] oct-2-ene-2-carboxylate sodium salt] |  |  |  |  |  |  |  |  | 4220 | 4500 | 7260 | 3420 | without degradation
